Key:
Type in all cases: biochemical
[1] = biological target: T1, recombinant human VAP-1 (Homo sapiens, UniProt Q16853); assay: Activity on recombinant human VAP-1, HRP-coupled Amplex Red hydrogen peroxide assay; settings: substrate 1 mM benzylamine; compound incubated with enzyme at 37° C. for 30 minutes; pH 7.4; read-out: Inhibitory Activity (IC50, nM) human VAP-1
T1 construct: purchased R&D systems
T1 sequence (Q16853 1-763): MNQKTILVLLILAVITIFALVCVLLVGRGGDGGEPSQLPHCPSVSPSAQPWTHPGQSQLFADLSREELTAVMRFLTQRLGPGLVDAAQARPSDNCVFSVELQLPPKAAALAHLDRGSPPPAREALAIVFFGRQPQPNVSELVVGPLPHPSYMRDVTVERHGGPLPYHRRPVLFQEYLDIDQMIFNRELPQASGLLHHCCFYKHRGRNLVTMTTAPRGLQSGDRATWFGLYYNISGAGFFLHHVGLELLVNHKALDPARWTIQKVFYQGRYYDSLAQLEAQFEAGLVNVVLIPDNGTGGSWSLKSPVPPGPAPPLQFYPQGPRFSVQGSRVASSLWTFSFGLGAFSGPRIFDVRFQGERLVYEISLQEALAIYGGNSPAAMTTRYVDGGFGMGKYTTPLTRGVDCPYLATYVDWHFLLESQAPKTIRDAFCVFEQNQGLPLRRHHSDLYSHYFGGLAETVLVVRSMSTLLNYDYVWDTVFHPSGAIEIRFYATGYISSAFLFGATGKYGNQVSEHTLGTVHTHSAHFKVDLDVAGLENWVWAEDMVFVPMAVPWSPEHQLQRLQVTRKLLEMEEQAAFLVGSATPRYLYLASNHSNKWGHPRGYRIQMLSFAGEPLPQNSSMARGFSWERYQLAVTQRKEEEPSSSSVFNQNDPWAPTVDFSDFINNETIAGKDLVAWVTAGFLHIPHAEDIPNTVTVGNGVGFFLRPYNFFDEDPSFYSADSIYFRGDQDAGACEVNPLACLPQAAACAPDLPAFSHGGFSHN
Procedure, shortened: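 8-point 1:3 dilutions, final DMSO <1%; 30 min enzyme preincubation, 37 °C, pH 7.4 phosphate. Start: 1 mM benzylamine + 200 uM Amplex Red + 1 U/mL HRP. Read ex544/em590 over 1-2 h; % rate decrease vs DMSO control, 4-parameter logistic IC50.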

[2] = biological target: T2, recombinant human MAO-A (monoamine oxidase-A) (Homo sapiens, UniProt P21397); assay: Activity on recombinant human MAO-A, method similar to the VAP-1 assay; settings: substrate 0.5 mM tyramine; read-out: Inhibitory Activity (IC50, nM) MAO-A
T2 construct: purchased Sigma-Aldrich
T2 sequence (P21397 1-527): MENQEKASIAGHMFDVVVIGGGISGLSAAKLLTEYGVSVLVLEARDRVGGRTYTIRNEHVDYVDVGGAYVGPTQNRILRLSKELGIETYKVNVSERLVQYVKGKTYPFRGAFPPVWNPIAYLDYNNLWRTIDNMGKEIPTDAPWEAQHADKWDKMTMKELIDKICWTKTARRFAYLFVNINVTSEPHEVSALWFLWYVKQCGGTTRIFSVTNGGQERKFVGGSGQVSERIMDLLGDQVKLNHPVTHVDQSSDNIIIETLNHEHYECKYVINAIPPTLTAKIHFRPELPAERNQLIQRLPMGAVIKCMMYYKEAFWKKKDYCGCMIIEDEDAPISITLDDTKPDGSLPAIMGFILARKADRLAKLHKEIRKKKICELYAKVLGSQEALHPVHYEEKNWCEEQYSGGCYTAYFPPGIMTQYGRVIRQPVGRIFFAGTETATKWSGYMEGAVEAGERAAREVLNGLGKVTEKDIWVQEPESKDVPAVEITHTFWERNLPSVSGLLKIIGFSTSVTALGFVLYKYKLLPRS
Procedure, shortened: (§1)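 HRP-coupled Amplex Red H2O2 assay, 50 mM sodium phosphate pH 7.4; compounds (8-point 1:3 series, final DMSO <1%) preincubated with enzyme 30 min at 37° C, then 200 uM Amplex Red, 1 U/mL HRP and substrate (MAO-A 0.5 mM tyramine; MAO-B 1 mM benzylamine) added. Resorufin fluorescence (ex 544/em 590 nm) read over 1-2 h; IC50 from four-parameter logistic fit.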

[3] = biological target: T3, recombinant human MAO-B (monoamine oxidase-B) (Homo sapiens, UniProt P27338); assay: Activity on recombinant human MAO-B, method similar to the VAP-1 assay; settings: substrate 1 mM benzylamine; read-out: Inhibitory Activity (IC50, nM) MAO-B
T3 construct: purchased Sigma-Aldrich
T3 sequence (P27338 1-520): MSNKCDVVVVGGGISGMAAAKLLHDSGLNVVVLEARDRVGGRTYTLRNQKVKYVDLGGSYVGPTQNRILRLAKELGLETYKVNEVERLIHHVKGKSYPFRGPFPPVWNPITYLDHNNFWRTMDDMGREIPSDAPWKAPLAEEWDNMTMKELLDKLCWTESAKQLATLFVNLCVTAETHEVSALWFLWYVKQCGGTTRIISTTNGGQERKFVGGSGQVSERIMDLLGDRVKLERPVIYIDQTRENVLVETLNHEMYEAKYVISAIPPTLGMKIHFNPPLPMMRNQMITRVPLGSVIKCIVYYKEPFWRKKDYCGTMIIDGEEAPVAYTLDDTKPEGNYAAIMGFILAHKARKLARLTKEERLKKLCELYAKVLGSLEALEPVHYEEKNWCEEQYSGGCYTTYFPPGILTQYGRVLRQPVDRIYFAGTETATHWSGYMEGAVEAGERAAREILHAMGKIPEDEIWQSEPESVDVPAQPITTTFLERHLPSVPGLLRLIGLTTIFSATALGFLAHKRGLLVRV
Procedure, shortened: as §1

[4] = biological target: T4, recombinant human DAO (diamine oxidase) (Homo sapiens, UniProt P19801); assay: Activity on recombinant human DAO, method similar to the VAP-1 assay; settings: substrate 1 mM putrescine; read-out: Inhibitory Activity (IC50, nM) DAO
T4 construct: purchased R&D systems
T4 sequence (P19801 20-751): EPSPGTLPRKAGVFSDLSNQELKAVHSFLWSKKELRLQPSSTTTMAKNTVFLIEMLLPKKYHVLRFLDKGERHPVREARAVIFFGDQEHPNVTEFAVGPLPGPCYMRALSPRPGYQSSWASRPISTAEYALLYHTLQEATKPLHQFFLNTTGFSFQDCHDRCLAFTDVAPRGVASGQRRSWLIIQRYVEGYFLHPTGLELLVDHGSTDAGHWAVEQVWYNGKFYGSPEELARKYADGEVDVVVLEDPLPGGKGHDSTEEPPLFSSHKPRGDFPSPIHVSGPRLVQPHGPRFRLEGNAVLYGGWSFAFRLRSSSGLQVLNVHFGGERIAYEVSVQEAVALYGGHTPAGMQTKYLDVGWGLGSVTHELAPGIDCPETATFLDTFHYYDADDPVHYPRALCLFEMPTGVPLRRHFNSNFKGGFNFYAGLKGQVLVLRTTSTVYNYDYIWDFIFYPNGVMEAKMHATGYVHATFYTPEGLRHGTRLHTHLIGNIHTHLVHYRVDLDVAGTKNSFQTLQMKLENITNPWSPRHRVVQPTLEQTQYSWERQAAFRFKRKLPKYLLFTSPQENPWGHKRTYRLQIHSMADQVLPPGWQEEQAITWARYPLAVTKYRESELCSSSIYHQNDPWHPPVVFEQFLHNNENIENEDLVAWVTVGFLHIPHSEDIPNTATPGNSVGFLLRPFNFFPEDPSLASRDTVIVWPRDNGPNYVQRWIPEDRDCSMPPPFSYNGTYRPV
Procedure, shortened: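 Inhibition of recombinant human diamine oxidase (DAO, R&D systems) was assessed by the same approach as the VAP-1 assay, using 1 mM putrescine as substrate. Hydrogen peroxide formed was detected through an HRP-coupled Amplex Red reaction yielding fluorescent resorufin, read at 544 nm excitation and 590 nm emission. IC50 values came from four-parameter logistic fitting in GraphPad Prism.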

## NC/C(=C\F)Cn1ncn(Cc2ccc(-c3ccc(OC(F)F)cc3)s2)c1=O [Example 170, 2-[(2E)-2-(aminomethyl)-3-fluoroprop-2-en-1-yl]-4-({5-[4-(difluoromethoxy)phenyl]thiophen-2-yl}methyl)-2,4-dihydro-3H-1,2,4-triazol-3-one]
[1]
  IC50: 3 nM
[2]
  IC50: > 100000 nM
[3]
  IC50: 190 nM
[4]
  IC50: 3100 nM

## NC/C(=C\F)Cn1ncn(Cc2ccc(-c3ccc(CCO)cc3)s2)c1=O [Example 171, 2-[(2E)-2-(aminomethyl)-3-fluoroprop-2-en-1-yl]-4-({5-[4-(2-hydroxyethyl)phenyl]thiophen-2-yl}methyl)-2,4-dihydro-3H-1,2,4-triazol-3-one]
[1]
  IC50: 2.4 nM
[2]
  IC50: > 100000 nM
[3]
  IC50: 740 nM
[4]
  IC50: 16000 nM

## Cc1cc(-c2ccc(Cn3cnn(C/C(=C/F)CN)c3=O)s2)cnc1N1CCOCC1 [Example 172, 2-[(2E)-2-(aminomethyl)-3-fluoroprop-2-en-1-yl]-4-({5-[5-methyl-6-(morpholin-4-yl)pyridin-3-yl]thiophen-2-yl}methyl)-2,4-dihydro-3H-1,2,4-triazol-3-one]
[1]
  IC50: 2.8 nM
[2]
  IC50: > 100000 nM
[3]
  IC50: 3900 nM
[4]
  IC50: 490 nM

## CN(C)c1ncc(-c2ccc(Cn3cnn(C/C(=C/F)CN)c3=O)s2)cc1F [Example 173, 2-[(2E)-2-(aminomethyl)-3-fluoroprop-2-en-1-yl]-4-({5-[6-(dimethylamino)-5-fluoropyridin-3-yl]thiophen-2-yl}methyl)-2,4-dihydro-3H-1,2,4-triazol-3-one]
[1]
  IC50: 2.1 nM
[2]
  IC50: > 100000 nM
[3]
  IC50: 2000 nM
[4]
  IC50: 1200 nM

## NC/C(=C\F)Cn1ncn(Cc2ccc(-c3ccc(OCC4CC4)nc3)s2)c1=O [Example 174, 2-[(2E)-2-(aminomethyl)-3-fluoroprop-2-en-1-yl]-4-({5-[6-(cyclopropylmethoxy)pyridin-3-yl]thiophen-2-yl}methyl)-2,4-dihydro-3H-1,2,4-triazol-3-one]
[1]
  IC50: 7.7 nM
[2]
  IC50: > 100000 nM
[3]
  IC50: 570 nM
[4]
  IC50: 1000 nM

## NC/C(=C\F)Cn1ncn(Cc2ccc(-c3ccnnc3)s2)c1=O [Example 175, 2-[(2E)-2-(aminomethyl)-3-fluoroprop-2-en-1-yl]-4-{[5-(pyridazin-4-yl)thiophen-2-yl]methyl}-2,4-dihydro-3H-1,2,4-triazol-3-one]
[1]
  IC50: 3.6 nM
[2]
  IC50: > 100000 nM
[3]
  IC50: 4400 nM
[4]
  IC50: 670 nM

## CNC(=O)c1ccc(-c2ccc(Cn3cnn(C/C(=C/F)CN)c3=O)s2)cc1 [Example 176, 4-[5-({1-[(2E)-2-(aminomethyl)-3-fluoroprop-2-en-1-yl]-5-oxo-1,5-dihydro-4H-1,2,4-triazol-4-yl}methyl)thiophen-2-yl]-N-methylbenzamide]
[1]
  IC50: 1.5 nM
[2]
  IC50: > 100000 nM
[3]
  IC50: 1900 nM
[4]
  IC50: 1100 nM

## CS(=O)(=O)Nc1cccc(-c2ccc(Cn3cnn(C/C(=C/F)CN)c3=O)s2)c1 [Example 177, N-{3-[5-({1-[(2E)-2-(aminomethyl)-3-fluoroprop-2-en-1-yl]-5-oxo-1,5-dihydro-4H-1,2,4-triazol-4-yl}methyl)thiophen-2-yl]phenyl}methansulfonamide]
[1]
  IC50: 1.5 nM
[2]
  IC50: > 100000 nM
[3]
  IC50: 300 nM
[4]
  IC50: 570 nM

## COc1cc(-c2ccc(Cn3cnn(C/C(=C/F)CN)c3=O)s2)cnc1OC [Example 178, 2-[(2E)-2-(aminomethyl)-3-fluoroprop-2-en-1-yl]-4-{[5-(5,6-dimethoxypyridin-3-yl)thiophen-2-yl]methyl}-2,4-dihydro-3H-1,2,4-triazol-3-one]
[1]
  IC50: 0.8 nM
[2]
  IC50: > 100000 nM
[3]
  IC50: 700 nM
[4]
  IC50: 280 nM

## CCOc1ncc(-c2ccc(Cn3cnn(C/C(=C/F)CN)c3=O)s2)cn1 [Example 179, 2-[(2E)-2-(aminomethyl)-3-fluoroprop-2-en-1-yl]-4-{[5-(2-ethoxypyrimidin-5-yl)thiophen-2-yl]methyl}-2,4-dihydro-3H-1,2,4-triazol-3-one]
[1]
  IC50: 1.2 nM
[2]
  IC50: > 100000 nM
[3]
  IC50: 8400 nM
[4]
  IC50: 89 nM

## CC(=O)c1ccc(-c2ccc(Cn3cnn(C/C(=C/F)CN)c3=O)s2)cc1 [Example 180, 4-{[5-(4-acetylphenyl)thiophen-2-yl]methyl}-2-[(2E)-2-(aminomethyl)-3-fluoroprop-2-en-1-yl]-2,4-dihydro-3H-1,2,4-triazol-3-one]
[1]
  IC50: 0.9 nM
[2]
  IC50: > 100000 nM
[3]
  IC50: 410 nM
[4]
  IC50: 1200 nM

## CS(=O)(=O)c1cccc(-c2ccc(Cn3cnn(C/C(=C/F)CN)c3=O)s2)c1 [Example 181, 2-[(2E)-2-(aminomethyl)-3-fluoroprop-2-en-1-yl]-4-({5-[3-(methylsulfonyl)phenyl]thiophen-2-yl}methyl)-2,4-dihydro-3H-1,2,4-triazol-3-one]
[1]
  IC50: 1.5 nM
[2]
  IC50: > 100000 nM
[3]
  IC50: 250 nM
[4]
  IC50: 760 nM
